In brackets after ≈: the same amount, converted by molar mass.

The test system of the assay is Human alphaherpesvirus 1. The assay can be described thus: The minimal inhibitory concentration required to inhibit HSV-1 virus in MRC5 cells. The class given is functional.

Regarding `Nc1nc(O)c2ccn([C@@H]3C[C@H](CO)[C@@H](O)[C@@H]3O)c2n1`, the MIC was 25 µg/mL (≈ 89.2 µM).
Under `Nc1nc(O)c2ccn([C@@H]3C[C@H](CO)[C@H](O)[C@@H]3O)c2n1` stands 100 µg/mL (≈ 357 µM).

Source of the values: ChEMBL document CHEMBL1123128, “(+/-)-2-Amino-3,4-dihydro-7-[2,3-dihydroxy-4-(hydroxymethyl)-1- cyclopentyl]-7H-pyrrolo[2,3-d]pyrimidin-4-ones: new carbocyclic analogues of 7-deazaguanosine with antiviral activity” (1985).
